Test results: ChEMBL document CHEMBL5500378, “Discovery of 4-benzylpiperazinequinoline BChE inhibitor that suppresses neuroinflammation for the treatment of Alzheimer's disease” (Eur J Med Chem, 2024)

What was measured:
Cholinesterase [1] = target: Cholinesterase (Equus caballus, UniProt P81908); assay: Inhibition of equine serum BChE using BTC as substrate incubated for 2 mins by Ellman's method; format: cell-free
Cholinesterase [2] = target: T1, Cholinesterase (Homo sapiens, UniProt P06276); assay: Inhibition of human BChE using BTC as substrate incubated for 2 mins by Ellman's method
T1 sequence (P06276 whole entry): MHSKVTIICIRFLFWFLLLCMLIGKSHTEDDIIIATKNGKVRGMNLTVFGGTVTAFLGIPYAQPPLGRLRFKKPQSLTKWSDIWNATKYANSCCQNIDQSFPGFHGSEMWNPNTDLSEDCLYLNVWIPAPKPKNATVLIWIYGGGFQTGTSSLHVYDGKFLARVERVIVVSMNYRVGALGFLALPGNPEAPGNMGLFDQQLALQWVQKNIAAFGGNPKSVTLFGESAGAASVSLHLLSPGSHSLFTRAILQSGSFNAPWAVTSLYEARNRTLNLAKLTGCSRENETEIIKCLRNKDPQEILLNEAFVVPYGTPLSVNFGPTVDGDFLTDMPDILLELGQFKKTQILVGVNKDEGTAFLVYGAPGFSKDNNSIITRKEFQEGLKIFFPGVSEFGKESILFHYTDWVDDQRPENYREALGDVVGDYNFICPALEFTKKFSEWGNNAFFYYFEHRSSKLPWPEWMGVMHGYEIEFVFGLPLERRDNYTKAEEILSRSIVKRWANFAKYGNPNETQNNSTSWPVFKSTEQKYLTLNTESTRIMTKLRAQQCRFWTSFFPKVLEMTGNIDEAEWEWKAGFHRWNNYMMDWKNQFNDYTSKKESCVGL

[3] = target: Acetylcholinesterase (Electrophorus electricus) (UniProt O42275); assay: Inhibition of electric eel AChE using ATC as substrate at 10 uM incubated for 2 mins by Ellman's method relative to control
Sequence of Acetylcholinesterase (Electrophorus electricus) (O42275 24-633 limits assumed): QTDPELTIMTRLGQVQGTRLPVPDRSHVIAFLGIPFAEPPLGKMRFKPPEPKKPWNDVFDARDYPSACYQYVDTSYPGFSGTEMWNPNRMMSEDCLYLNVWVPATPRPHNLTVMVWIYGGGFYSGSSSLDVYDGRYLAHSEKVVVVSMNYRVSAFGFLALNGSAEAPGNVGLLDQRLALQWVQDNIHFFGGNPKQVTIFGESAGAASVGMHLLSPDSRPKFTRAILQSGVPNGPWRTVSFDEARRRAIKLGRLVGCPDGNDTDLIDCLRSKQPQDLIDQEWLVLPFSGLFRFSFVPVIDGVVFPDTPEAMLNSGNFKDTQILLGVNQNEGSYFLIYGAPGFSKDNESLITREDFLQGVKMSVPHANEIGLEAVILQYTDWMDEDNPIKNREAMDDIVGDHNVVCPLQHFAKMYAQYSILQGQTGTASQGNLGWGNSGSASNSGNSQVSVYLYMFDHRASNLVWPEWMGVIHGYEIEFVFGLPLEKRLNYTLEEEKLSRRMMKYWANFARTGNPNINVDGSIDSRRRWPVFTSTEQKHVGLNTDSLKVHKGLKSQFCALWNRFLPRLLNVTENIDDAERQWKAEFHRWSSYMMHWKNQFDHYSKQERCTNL

[4] = Metabolic stability in human liver microsomes assessed as half life at 2 uM incubated for 60 mins by LC-MS/MS analysis; format: ADME, Microsome
Cholinesterase [5] = target: T1, Cholinesterase; assay: Inhibition of human BChE using BTC as substrate at 10 uM incubated for 2 mins by Ellman's method relative to control
Acetylcholinesterase = Acetylcholinesterase (Electrophorus electricus, UniProt O42275); assay: Inhibition of electric eel AChE using ATC as substrate incubated for 2 mins by Ellman's method
Sequence of Acetylcholinesterase (O42275 whole entry): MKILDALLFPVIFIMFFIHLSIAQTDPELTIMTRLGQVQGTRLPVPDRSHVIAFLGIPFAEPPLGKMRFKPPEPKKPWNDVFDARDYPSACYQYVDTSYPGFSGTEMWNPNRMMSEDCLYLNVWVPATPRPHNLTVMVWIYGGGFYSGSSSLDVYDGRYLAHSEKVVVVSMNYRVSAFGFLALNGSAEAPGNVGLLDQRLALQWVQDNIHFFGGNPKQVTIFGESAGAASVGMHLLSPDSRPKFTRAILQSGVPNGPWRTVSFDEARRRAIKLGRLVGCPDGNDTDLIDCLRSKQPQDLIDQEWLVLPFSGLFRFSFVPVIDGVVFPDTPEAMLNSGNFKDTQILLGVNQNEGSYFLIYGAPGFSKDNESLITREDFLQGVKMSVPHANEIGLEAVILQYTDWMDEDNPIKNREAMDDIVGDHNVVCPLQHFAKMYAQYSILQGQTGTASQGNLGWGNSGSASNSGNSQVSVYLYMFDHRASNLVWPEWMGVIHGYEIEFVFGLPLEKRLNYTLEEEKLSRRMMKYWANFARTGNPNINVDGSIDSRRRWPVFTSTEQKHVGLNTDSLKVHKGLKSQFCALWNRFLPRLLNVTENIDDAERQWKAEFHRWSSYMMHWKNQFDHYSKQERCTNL

[6] = target: Cholinesterase (Equus caballus) (UniProt P81908); assay: Inhibition of equine serum BChE using BTC as substrate at 10 uM incubated for 2 mins by Ellman's method relative to control; format: cell-free
Sequence of Cholinesterase (Equus caballus) (P81908 whole entry): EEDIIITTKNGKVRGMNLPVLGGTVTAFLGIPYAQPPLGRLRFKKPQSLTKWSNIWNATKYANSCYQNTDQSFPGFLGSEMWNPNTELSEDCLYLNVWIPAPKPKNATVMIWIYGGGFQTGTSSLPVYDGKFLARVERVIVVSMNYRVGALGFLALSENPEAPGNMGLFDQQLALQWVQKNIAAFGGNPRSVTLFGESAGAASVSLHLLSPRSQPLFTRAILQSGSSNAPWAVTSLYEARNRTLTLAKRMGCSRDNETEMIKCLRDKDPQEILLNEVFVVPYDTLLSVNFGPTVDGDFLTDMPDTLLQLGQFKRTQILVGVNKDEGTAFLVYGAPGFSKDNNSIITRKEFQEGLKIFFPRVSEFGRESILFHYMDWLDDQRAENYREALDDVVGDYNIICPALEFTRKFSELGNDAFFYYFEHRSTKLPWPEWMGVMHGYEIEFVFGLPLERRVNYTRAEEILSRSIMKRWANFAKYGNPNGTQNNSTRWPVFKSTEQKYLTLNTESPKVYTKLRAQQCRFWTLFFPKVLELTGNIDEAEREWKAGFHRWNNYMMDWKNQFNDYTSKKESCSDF

[7] = system: Antioxidant response element; assay: Induction of ARE in human HepG2-ARE-C8 cells incubated for 24 hrs by luciferase based assay; format: cell-based; conditions: HepG2-ARE-C8, 24 h

Sequence of Cholinesterase (Equus caballus, UniProt P81908) (P81908 whole entry): as above

Row | SMILES | IC50 (Cholinesterase [1]) | IC50 (Cholinesterase [2]) | inhibition [3] | half-life at 2 µM [4] | inhibition (Cholinesterase [5]) | IC50 (Acetylcholinesterase) | inhibition [6] | EC50 [7]
1 | O=C(Nc1cnc2ccccc2c1N1CCN(Cc2ccccc2)CC1)c1ccccc1 | 3.06 µM | 1.68 µM | < 50% | 9.4 min | – | – | – | –
2 | O=C(Nc1cnc2ccccc2c1N1CCN(Cc2ccccc2)CC1)c1ccc(Br)cc1 | 1.27 µM | – | < 50% | – | < 50% | – | – | –
3 | COc1ccc(C(=O)Nc2cnc3ccccc3c2N2CCN(Cc3ccccc3)CC2)cc1 | 0.18 µM | – | < 50% | – | < 50% | – | – | –
4 | O=C(CCc1ccccc1)Nc1cnc2ccccc2c1N1CCN(Cc2ccccc2)CC1 | 0.44 µM | 5.39 µM | < 50% | – | – | – | – | –
5 | CCCCc1ccc(C(=O)Nc2cnc3ccccc3c2N2CCN(Cc3ccccc3)CC2)cc1 | 0.13 µM | 0.55 µM | < 50% | – | – | – | – | –
6 | O=C(Nc1cnc2ccccc2c1N1CCN(Cc2ccccc2)CC1)c1ccc(Cl)cc1 | 0.4 µM | 4.33 µM | < 50% | – | – | – | – | –
7 | Cc1ccccc1C(=O)Nc1cnc2ccccc2c1N1CCN(Cc2ccccc2)CC1 | 2.24 µM | 1.2 µM | < 50% | – | – | – | – | –
8 | N#Cc1ccc(C(=O)Nc2cnc3ccccc3c2N2CCN(Cc3ccccc3)CC2)cc1 | 7.61 µM | – | < 50% | – | < 50% | – | – | –
9 | O=C(Nc1cnc2ccccc2c1N1CCN(Cc2ccccc2)CC1)c1ccc(F)cc1F | 0.46 µM | – | < 50% | – | < 50% | – | – | –
10 | O=C(Nc1cnc2ccccc2c1N1CCN(Cc2ccccc2)CC1)c1ccc(Cl)cc1Cl | 0.23 µM | 2.41 µM | < 50% | – | – | – | – | –
11 | Cc1ccc(C(=O)Nc2cnc3ccccc3c2N2CCN(Cc3ccccc3)CC2)c(C)c1 | 0.4 µM | 3.52 µM | – | – | – | 3.77 µM | – | –
12 | O=C(Nc1cnc2ccccc2c1N1CCN(Cc2ccccc2)CC1)c1cccc(Cl)c1 | 1.58 µM | – | < 50% | – | < 50% | – | – | –
13 | Cc1cccc(C(=O)Nc2cnc3ccccc3c2N2CCN(Cc3ccccc3)CC2)n1 | 3.32 µM | – | < 50% | – | < 50% | – | – | –
14 | O=C(Nc1cnc2ccccc2c1N1CCN(Cc2ccccc2)CC1)c1ccccc1Cl | 0.18 µM | 1.13 µM | < 50% | – | – | – | – | –
15 | O=C(Nc1cnc2ccccc2c1N1CCN(Cc2ccccc2)CC1)C1CCCC1 | 15.1 µM | – | – | – | < 50% | 1.34 µM | – | –
16 | CCc1ccc(C(=O)Nc2cnc3ccccc3c2N2CCN(Cc3ccccc3)CC2)cc1 | 2.65 µM | – | < 50% | – | < 50% | – | – | –
17 | O=C(Cc1ccccc1Cl)Nc1cnc2ccccc2c1N1CCN(Cc2ccccc2)CC1 | 0.77 µM | 1.15 µM | < 50% | – | – | – | – | –
18 | O=C(Nc1cnc2ccccc2c1N1CCN(Cc2ccccc2)CC1)c1cccs1 | 0.21 µM | – | – | – | < 50% | 4.04 µM | – | –
19 | Cc1ccc(C(=O)Nc2cnc3ccccc3c2N2CCN(Cc3ccccc3)CC2)cc1 | 0.16 µM | 0.77 µM | < 50% | – | – | – | – | –
20 | O=C(Cc1ccccc1)Nc1cnc2ccccc2c1N1CCN(Cc2ccccc2)CC1 | 0.59 µM | 9.23 µM | < 50% | – | – | – | – | –

Row | SMILES | IC50 (Cholinesterase [1]) | IC50 (Cholinesterase [2]) | inhibition [3] | half-life at 2 µM [4] | inhibition (Cholinesterase [5]) | IC50 (Acetylcholinesterase) | inhibition [6] | EC50 [7]
21 | O=C(Cc1cccc([N+](=O)[O-])c1)Nc1cnc2ccccc2c1N1CCN(Cc2ccccc2)CC1 | 6.27 µM | – | < 50% | – | < 50% | – | – | –
22 | CC(C)c1ccc(C(=O)Nc2cnc3ccccc3c2N2CCN(Cc3ccccc3)CC2)cc1 | 1.18 µM | – | < 50% | – | < 50% | – | – | –
23 | O=C(Nc1cnc2ccccc2c1N1CCN(Cc2ccccc2)CC1)c1cccc2ccccc12 | 0.14 µM | 4.13 µM | < 50% | – | – | – | – | –
24 | Cc1ccc(CC(=O)Nc2cnc3ccccc3c2N2CCN(Cc3ccccc3)CC2)cc1 | 4.73 µM | – | < 50% | – | < 50% | – | – | –
25 | O=C(Nc1cnc2ccccc2c1N1CCN(Cc2ccccc2)CC1)c1cccc([N+](=O)[O-])c1 | 1.3 µM | – | < 50% | – | < 50% | – | – | –
26 | Cc1cccc(CC(=O)Nc2cnc3ccccc3c2N2CCN(Cc3ccccc3)CC2)c1 | 0.43 µM | 10.7 µM | < 50% | – | – | – | – | –
27 | O=C(Nc1cnc2ccccc2c1N1CCN(Cc2ccccc2)CC1)C1CCCO1 (centres undefined) | – | – | < 50% | – | < 50% | – | < 50% | –
28 | O=C(Nc1cnc2ccccc2c1N1CCN(Cc2ccccc2)CC1)c1ccco1 | 0.42 µM | – | – | – | < 50% | 4.22 µM | – | –
29 | CC(C)(C)c1cc(O)ccc1O [E319] | – | – | – | – | – | – | – | 25.6 µM
30 | COc1ccccc1C(=O)Nc1cnc2ccccc2c1N1CCN(Cc2ccccc2)CC1 | 0.18 µM | 18.4 µM | < 50% | – | – | – | – | –
31 | O=C(Nc1cnc2ccccc2c1N1CCN(Cc2ccccc2)CC1)c1ccc2ccccc2c1 | 0.6 µM | 12 µM | < 50% | – | – | – | – | –
32 | CCCCCc1ccc(C(=O)Nc2cnc3ccccc3c2N2CCN(Cc3ccccc3)CC2)cc1 | 0.17 µM | 1.59 µM | < 50% | – | – | – | – | –
33 | O=C(Nc1cnc2ccccc2c1N1CCN(Cc2ccccc2)CC1)c1ccc([N+](=O)[O-])cc1 | 0.7 µM | – | < 50% | – | < 50% | – | – | –
34 | O=C(Nc1cnc2ccccc2c1N1CCN(Cc2ccccc2)CC1)c1ccccn1 | 0.28 µM | 2.66 µM | < 50% | – | – | – | – | –
35 | O=C(Nc1cnc2ccccc2c1N1CCN(Cc2ccccc2)CC1)c1ccc([N+](=O)[O-])c([N+](=O)[O-])c1 | 9.04 µM | – | < 50% | – | < 50% | – | – | –
36 | COc1cccc(C(=O)Nc2cnc3ccccc3c2N2CCN(Cc3ccccc3)CC2)c1 | 0.3 µM | – | < 50% | – | < 50% | – | – | –
37 | O=C(Nc1cnc2ccccc2c1N1CCN(Cc2ccccc2)CC1)C1CCCCC1 | 11.9 µM | – | – | – | < 50% | 2.02 µM | – | –
38 | O=C(Cc1ccc(Cl)cc1)Nc1cnc2ccccc2c1N1CCN(Cc2ccccc2)CC1 | 0.96 µM | – | < 50% | – | < 50% | – | – | –
39 | O=C(Nc1cnc2ccccc2c1N1CCN(Cc2ccccc2)CC1)c1ccc(F)cc1 | 3.31 µM | – | < 50% | – | < 50% | – | – | –
40 | Cc1cccc(C(=O)Nc2cnc3ccccc3c2N2CCN(Cc3ccccc3)CC2)c1 | 0.36 µM | – | < 50% | – | < 50% | – | – | –
